Measured values published in US10428017B2, “Modulators of the cystic fibrosis transmembrane conductance regulator protein and methods of use” (AbbVie S.à.r.l., priority 2017, dated 2019).
pEC50: −log10 of the molar value. Where two headings read alike, the source gives them in different places.

Biological target: T1, F508delCFTR (Homo sapiens, UniProt P13569, DEL508-508)
T1 construct: expressed in transfected cells; host or cells: CFBE4lo-F508delCFTR-HRP cells (human lung derived epithelial cell line, doxycycline-inducible)
T1 sequence (P13569 with tags, fused parts or gaps DEL508-508): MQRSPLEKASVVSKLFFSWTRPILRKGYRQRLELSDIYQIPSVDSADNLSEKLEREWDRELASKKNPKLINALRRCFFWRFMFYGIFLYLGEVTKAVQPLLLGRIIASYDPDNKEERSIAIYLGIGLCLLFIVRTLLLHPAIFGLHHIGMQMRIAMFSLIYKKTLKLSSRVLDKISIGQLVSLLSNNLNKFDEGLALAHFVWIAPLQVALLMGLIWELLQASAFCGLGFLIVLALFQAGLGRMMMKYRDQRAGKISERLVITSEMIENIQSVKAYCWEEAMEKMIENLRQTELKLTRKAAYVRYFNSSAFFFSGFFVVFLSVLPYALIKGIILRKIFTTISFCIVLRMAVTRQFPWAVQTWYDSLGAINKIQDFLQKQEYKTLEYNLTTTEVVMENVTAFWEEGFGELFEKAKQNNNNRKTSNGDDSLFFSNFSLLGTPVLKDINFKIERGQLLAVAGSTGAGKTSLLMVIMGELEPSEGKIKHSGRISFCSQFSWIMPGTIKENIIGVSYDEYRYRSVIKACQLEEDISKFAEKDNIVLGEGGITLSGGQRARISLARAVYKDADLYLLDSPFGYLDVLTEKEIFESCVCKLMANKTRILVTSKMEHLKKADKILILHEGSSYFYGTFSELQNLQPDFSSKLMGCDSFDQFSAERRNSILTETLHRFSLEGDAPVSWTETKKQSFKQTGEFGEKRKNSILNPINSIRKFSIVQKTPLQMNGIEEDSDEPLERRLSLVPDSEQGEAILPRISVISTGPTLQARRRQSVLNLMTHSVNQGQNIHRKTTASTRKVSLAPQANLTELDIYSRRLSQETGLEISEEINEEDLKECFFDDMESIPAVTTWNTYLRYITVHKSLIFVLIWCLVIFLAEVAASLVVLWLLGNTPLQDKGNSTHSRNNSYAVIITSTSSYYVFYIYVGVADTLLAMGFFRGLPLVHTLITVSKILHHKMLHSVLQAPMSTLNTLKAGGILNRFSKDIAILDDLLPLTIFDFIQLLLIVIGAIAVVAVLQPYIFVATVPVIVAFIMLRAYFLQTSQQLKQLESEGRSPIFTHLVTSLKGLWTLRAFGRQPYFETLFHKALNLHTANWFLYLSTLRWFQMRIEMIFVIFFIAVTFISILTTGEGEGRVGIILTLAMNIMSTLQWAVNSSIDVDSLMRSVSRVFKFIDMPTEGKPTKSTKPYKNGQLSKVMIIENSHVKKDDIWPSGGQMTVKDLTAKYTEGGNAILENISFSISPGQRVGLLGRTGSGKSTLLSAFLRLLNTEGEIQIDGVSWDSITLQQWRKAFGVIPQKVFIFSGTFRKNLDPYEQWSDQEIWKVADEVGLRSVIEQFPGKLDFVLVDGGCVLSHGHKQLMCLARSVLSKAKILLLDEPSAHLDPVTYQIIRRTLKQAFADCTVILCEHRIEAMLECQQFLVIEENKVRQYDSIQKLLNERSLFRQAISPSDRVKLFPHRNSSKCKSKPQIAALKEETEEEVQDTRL
Assay: Cell Surface Expression-Horse Radish Peroxidase (CSE-HRP) Assay
Assay type: cell-based
Conditions: for pEC50: CFBE4lo-F508delCFTR-HRP cells, 18-24 hours at 33° C.; for Emax / Maximum % activity (with co-corrector): maximum at any tested concentration (up to 20 μM), normalized to on-plate positive control (2 μM co-corrector); for Maximum % activity (with co-corrector): with co-corrector 2 μM
Experimental: Cell Surface Expression-Horse Radish Peroxidase (CSE-HRP) Assay
A cellular assay for measuring the F508delCFTR cell surface expression after correction with test compounds either without or with a co-corrector (2 μM of 3-[(2R,4R)-4-({[1-(2,2-difluoro-1,3-benzodioxol-5-yl)cyclopropyl]carbonyl}amino)-7-methoxy-3,4-dihydro-2H-chromen-2-yl]benzoic acid), was developed in human lung derived epithelial cell line (CFBE4lo−) (Veit G et al, (2012) Mol Biol Cell. 23(21): 4188-4202). The development was achieved by expressing the F508delCFTR mutation along with a horseradish peroxidase (HRP) in the fourth exofacial loop, and then measuring the HRP activity using luminescence readout from these cells, CFBE4lo-F508delCFTR-HRP, that were incubated overnight with the test corrector compounds, either without or with the co-corrector. For this primary assay, the CFBE4lo-F508delCFTR-HRP cells were plated in 384-well plates (Greiner Bio-one; Cat 781080) at 4,000 cells/well along with 0.5 μg/mL doxycycline to induce the F508delCFTR-HRP expression and further incubated at 37° C., 5% CO2 for 72 hours. The test compounds were then added either without or with a co-corrector at the required concentrations and further incubated for 18-24 hours at 33° C. The highest concentration tested was 20 μM with an 8-point concentration response curve using a 3-fold dilution in both the test compound without or with the co-corrector. Three replicate plates were run to determine one EC50. All plates contained negative controls (dimethyl sulfoxide, DMSO) and positive control (2 μM of 3-[(2R,4R)-4-({[1-(2,2-difluoro-1,3-benzodioxol-5-yl)cyclopropyl]carbonyl}amino)-7-methoxy-3,4-dihydro-2H-chromen-2-yl]benzoic acid) as well as on-plate concentration response of the positive control. Post incubation, the plates were washed 5× times with Dulbecco's phosphate buffered saline (DPBS), followed by the addition of the HRP substrate, luminol (50 μL), and measuring the HRP activity using luminescence readout on EnVision® Multilabel Plate Reader (Perkin Elmer; product number 2104-0010). The raw counts from the experiment were analyzed using Accelrys® Assay Explorer v3.3.
Z′ greater than 0.5 was used as passing quality control criteria for the plates.
The Z′ is defined as: 1−[3*SDPositive Control+3*SDNegative Control/Absolute(Meanpostivie Control−MeanNegative Control)] wherein “SD” is standard deviation.
The % activity measured at each of the 8 test concentrations of the test compound added either without or with a co-corrector (2 μM of 3-[(2R,4R)-4-({[1-(2,2-difluoro-1,3-benzodioxol-5-yl)cyclopropyl]carbonyl}amino)-7-methoxy-3,4-dihydro-2H-chromen-2-yl]benzoic acid) was normalized to the on-plate positive control using the following formulae: % activity(Test compound without co-corrector)=[(test compound without co-corrector response−DMSO response)/(positive control response−DMSO response)]*100 % activity(Test compound with co-corrector)=[(test compound with co-corrector response−DMSO response)/(positive control response−DMSO response)]*100
The maximum % activity achieved for the test compound either without or with a co-corrector at any tested concentration is presented in Table 1 along with the respective EC50's calculated using the following general sigmoidal curve with variable Hill slope equation (described as Model 42 in the Accelrys® Assay Explorer v3.3 software): y=(a−d)/(1+(x/c)^b)+d
General sigmoidal curve with concentration, response, top, bottom, EC50 and Hill slope. This model describes a sigmoidal curve with an adjustable baseline, a. The equation can be used to fit curves where response is either increasing or decreasing with respect to the independent variable, “x”.
“x” is a concentration of drug under test.
“a” is the maximum response, and “d” is the minimum response
“c” is the inflection point (EC50) for the curve. That is, “y” is halfway between the lower and upper asymptotes when x=c.
“b” is the slope-factor or Hill coefficient. […]

[1] = test compound without co-corrector, HRP luminescence readout, read-out: EC50 (without co-corrector)
[2] = test compound without co-corrector
[3] = with co-corrector 2 μM 3-[(2R,4R)-4-({[1-(2,2-difluoro-1,3-benzodioxol-5-yl)cyclopropyl]carbonyl}amino)-7-methoxy-3,4-dihydro-2H-chromen-2-yl]benzoic acid, read-out: EC50 (with co-corrector)

SMILES	pEC50 [1]	Emax [2] [%]	pEC50 [3]	Maximum % activity (with co-corrector)
COc1ccc(C2CCC2)c2c1C(C(=O)NS(=O)(=O)c1cccc3ncccc13)OCC2 (stereo not shown) [Example 81, 5-cyclobutyl-8-methoxy-N-(quinoline-5-sulfonyl)-3,4-dihydro-1H-2-benzopyran-1-carboxamide]	5.00 to 5.52	≥ 150	> 5.52	+++ (≥350)
COc1ccc(Br)c2c1C(C(=O)NS(=O)(=O)c1cccc3cccnc13)CCO2 (stereo not shown) [Example 42, 8-bromo-5-methoxy-N-(quinoline-8-sulfonyl)-3,4-dihydro-2H-1-benzopyran-4-carboxamide]	5.00 to 5.52	50 to 150	> 5.52	+++ (≥350)
COc1ccc(Br)c2c1OCC2C(=O)NS(=O)(=O)c1cccc2ccccc12 (stereo not shown) [Example 37, 4-bromo-7-methoxy-N-(naphthalene-1-sulfonyl)-2,3-dihydro-1-benzofuran-3-carboxamide]	5.00 to 5.52	≥ 150	> 5.52	+++ (≥350)
COc1ccc(C2CCC2)c2c1[C@@H](C(=O)NS(=O)(=O)c1cccc3ncccc13)CCO2 [Example 59, (4S)-8-cyclobutyl-5-methoxy-N-(quinoline-5-sulfonyl)-3,4-dihydro-2H-1-benzopyran-4-carboxamide]	5.00 to 5.52	≥ 150	5.00 to 5.52	+++ (≥350)
COc1ccc(C2CCC2)c2c1C(C(=O)NS(=O)(=O)c1cccc3ccccc13)OCC2 (stereo not shown) [Example 79, 5-cyclobutyl-8-methoxy-N-(naphthalene-1-sulfonyl)-3,4-dihydro-1H-2-benzopyran-1-carboxamide]	5.00 to 5.52	≥ 150	> 5.52	+++ (≥350)
COc1ccc(C2CCC2)c2c1[C@@H](C(=O)NS(=O)(=O)c1cccc3[nH]ccc13)CCO2 [Example 103, (4S)-8-cyclobutyl-N-(1H-indole-4-sulfonyl)-5-methoxy-3,4-dihydro-2H-1-benzopyran-4-carboxamide]	5.00 to 5.52	≥ 150	> 5.52	+++ (≥350)
COc1ccc2c(c1)C(C(=O)NS(=O)(=O)c1cccc3ccccc13)(c1ccccc1)CCO2 (stereo not shown) [Example 4, 6-methoxy-N-(naphthalene-1-sulfonyl)-4-phenyl-3,4-dihydro-2H-1-benzopyran-4-carboxamide]	> 5.52	50 to 150	> 5.52	+++ (≥350)
COc1cccc2c1C(C(=O)NS(=O)(=O)c1cccc3ncccc13)CC(C)(C)O2 (stereo not shown) [Example 48, 5-methoxy-2,2-dimethyl-N-(quinoline-5-sulfonyl)-3,4-dihydro-2H-1-benzopyran-4-carboxamide]	5.00 to 5.52	≥ 150	5.00 to 5.52	+++ (≥350)
CCC1(C(=O)NS(=O)(=O)c2cccc3ccccc23)CCOc2cccc(OC)c21 (stereo not shown) [Example 10, 4-ethyl-5-methoxy-N-(naphthalene-1-sulfonyl)-3,4-dihydro-2H-1-benzopyran-4-carboxamide]	> 5.52	≥ 150	> 5.52	+++ (≥350)
COc1ccc(C2CCC2)c2c1[C@H](C(=O)NS(=O)(=O)c1cccc3ncccc13)CC(C)(C)O2 [Example 86, (4R)-8-cyclobutyl-5-methoxy-2,2-dimethyl-N-(quinoline-5-sulfonyl)-3,4-dihydro-2H-1-benzopyran-4-carboxamide]	> 5.52	≥ 150	> 5.52	+++ (≥350)
O=C(NS(=O)(=O)c1cccc2ccccc12)C1(c2ccccc2)CCOc2ccc(Cl)cc21 (stereo not shown) [Example 19, 6-chloro-N-(naphthalene-1-sulfonyl)-4-phenyl-3,4-dihydro-2H-1-benzopyran-4-carboxamide]	5.00 to 5.52	≥ 150	5.00 to 5.52	+++ (≥350)
COc1ccc(C2CCC2)c2c1C(C(=O)NS(=O)(=O)c1cccc3c1CCCN3)CCO2 (stereo not shown) [Example 85, 8-cyclobutyl-5-methoxy-N-(1,2,3,4-tetrahydroquinoline-5-sulfonyl)-3,4-dihydro-2H-1-benzopyran-4-carboxamide]	> 5.52	≥ 150	> 5.52	+++ (≥350)

Results, then the compound that gave them:

pEC50 [1]	Emax [2] [%]	pEC50 [3]	Maximum % activity (with co-corrector)	SMILES
> 5.52	≥ 150	> 5.52	+++ (≥350)	COc1ccc(C2CCC2)c2c1[C@H](C(=O)NS(=O)(=O)c1cccc3ncccc13)CCO2 [Example 60, (4R)-8-cyclobutyl-5-methoxy-N-(quinoline-5-sulfonyl)-3,4-dihydro-2H-1-benzopyran-4-carboxamide]
> 5.52	≥ 150	> 5.52	+++ (≥350)	COc1ccc(C2CCC2)c2c1[C@H](C(=O)NS(=O)(=O)c1cccc3[nH]ccc13)CCO2 [Example 104, (4R)-8-cyclobutyl-N-(1H-indole-4-sulfonyl)-5-methoxy-3,4-dihydro-2H-1-benzopyran-4-carboxamide]
> 5.52	≥ 150	> 5.52	+++ (≥350)	COc1ccc(C2CCC2)c2c1[C@H](C(=O)NS(=O)(=O)c1cccc3c1NCCC3)CO2 [Example 99, (3S)-7-cyclobutyl-4-methoxy-N-(1,2,3,4-tetrahydroquinoline-8-sulfonyl)-2,3-dihydro-1-benzofuran-3-carboxamide]
> 5.52	50 to 150	> 5.52	+++ (≥350)	O=C(NS(=O)(=O)c1cccc2ccccc12)C1(c2ccccc2)COc2ccccc21 (stereo not shown) [Example 6, N-(naphthalene-1-sulfonyl)-3-phenyl-2,3-dihydro-1-benzofuran-3-carboxamide]
> 5.52	≥ 150	> 5.52	+++ (≥350)	COc1ccc(Br)c2c1C(C(=O)NS(=O)(=O)c1cccc3ncccc13)CC(C)(C)O2 (stereo not shown) [Example 46, 8-bromo-5-methoxy-2,2-dimethyl-N-(quinoline-5-sulfonyl)-3,4-dihydro-2H-1-benzopyran-4-carboxamide]
> 5.52	< 50	> 5.52	++ (≥150 and <350)	CCC1(C(=O)NS(=O)(=O)c2cccc3ccccc23)COc2ccccc21 (stereo not shown) [Example 23, 3-ethyl-N-(naphthalene-1-sulfonyl)-2,3-dihydro-1-benzofuran-3-carboxamide]
> 5.52	≥ 150	> 5.52	+++ (≥350)	COc1ccc(Br)c2c1[C@H](C(=O)NS(=O)(=O)c1cccc3cnn(C)c13)CCO2 [Example 70, (4R)-8-bromo-5-methoxy-N-(1-methyl-1H-indazole-7-sulfonyl)-3,4-dihydro-2H-1-benzopyran-4-carboxamide]
